10 compounds from EP4740948A1 (Dong Wha Pharm. Co., Ltd., priority 2023, dated 2025) can be followed below.

Assay [1] has as its system MKN-45 cells. The experiment in a line: Cancer cell proliferation inhibition (Cell Counting Kit-8), gastric cancer cell line. Type of assay: cell-based. The note with it: 1000 nM, cultured seven to 11 days; for inhibition at 1 µM: Homo sapiens, MKN-45, 264 h, read-out: % inhibition rate MKN -45. Summed up: (§1)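 Single 1000 nM dose of test substance, applied to cells seeded at 100–1,000 per well in 10% FBS medium, then culture for seven to 11 days. CCK-8 read-out; inhibition rate expressed as percent relative to untreated control.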

In assay [2] the test system is NCI-H1299 cells. The experiment in a line: Cancer cell proliferation inhibition (Cell Counting Kit-8), lung cancer cell line. The class given is cell-based. The note with it: 1000 nM, cultured seven to 11 days; for inhibition at 1 µM: Homo sapiens, NCI-H1299, 264 h, read-out: % inhibition rate NCI-H129 9. Summed up:
(§2)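 Percent inhibition, calculated as {1−(test group/control group)} × 100, comes from Cell Counting Kit-8 measurement. Treatment was 1000 nM test substance for seven to 11 days on cells plated at 100 to 1,000 per well in serum-containing medium.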

Assay [3] relates to SW-13 cells. The experiment in a line: Cancer cell proliferation inhibition (Cell Counting Kit-8), adrenal cancer cell line. Type of assay: cell-based. To be noted: 1000 nM, cultured seven to 11 days; for inhibition at 1 µM: Homo sapiens, SW13, 264 h, read-out: % inhibition rate SW-13. Summed up: as §2
In assay [4] the target is EZH2 (Homo sapiens, UniProt Q15910). The assay can be described thus: AlphaLISA enzyme activity inhibition, EZH2. Type of assay: biochemical. To be noted: for inhibition at 0.01 µM: 10nM test substance. On the procedure:
(§3) In order to confirm the EZH1 and/or EZH2 activity inhibitory effect of the 1,3-benzodioxole derivative compounds represented by chemical formula I of the present invention, the activity was measured using an AlphaLISA test method. The test substance dissolved in dimethylsulfoxide (DMSO) was diluted in a test solution (20 mM Tris pH 8.0, 0.1% BSA, 0.01% Triton X-100, 0.5 mM DTT) according to a final treatment concentration (5 nM or 10 nM) and mixed with EZH1 and EZH2, respectively, and then histone H3 peptide and S-adenosylmethionine (SAM) were added to initiate an enzyme reaction. An acceptor bead was added thereto after reaction for two hours and subjected to an additional reaction for one hour, after which a donor bead was added thereto. After an additional reaction for 30 minutes, the reaction was completed. An activity was measured using the Magellan program on a Spark10M instrument. DMSO was used as a control group, an inhibition rate of enzyme activity was calculated using a following equation, and the results thereof are shown in Table 1 below. [formula]

Assay [5] has as its system MIA-PaCa-2 cells. The assay can be described thus: Cancer cell proliferation inhibition (Cell Counting Kit-8), pancreatic cancer cell line. The class given is cell-based. The note with it: 1000 nM, cultured seven to 11 days; for inhibition at 1 µM: Homo sapiens, MIA PaCa-2, 264 h, read-out: % inhibition rate MIA-Paca2. The essentials:
as §2

Assay [6] has as its system G401 cells. The experiment in a line: Cancer cell proliferation inhibition (Cell Counting Kit-8), rhabdoid tumor cell line. To be noted: 1000 nM, cultured seven to 11 days; for inhibition at 1 µM: Homo sapiens, G-401, 264 h, read-out: % inhibition rate G401; for % inhibition rate G401: 1 µM. Type of assay: cell-based. The essentials: as §1
In assay [7] the test system is Lovo cells. The assay can be described thus: Cancer cell proliferation inhibition (Cell Counting Kit-8), colorectal cancer cell line. Type of assay: cell-based. The note with it: 1000 nM, cultured seven to 11 days; for inhibition at 1 µM: Homo sapiens, LoVo, 264 h, read-out: % inhibition rate LoVo. Summed up: as §2
Assay [8] has as its target EZH1 (Homo sapiens, UniProt Q92800). The assay can be described thus: AlphaLISA enzyme activity inhibition, EZH1. The class given is biochemical. The method, then:
as §3

Chain of EZH1 (Q92800 whole entry, species assumed): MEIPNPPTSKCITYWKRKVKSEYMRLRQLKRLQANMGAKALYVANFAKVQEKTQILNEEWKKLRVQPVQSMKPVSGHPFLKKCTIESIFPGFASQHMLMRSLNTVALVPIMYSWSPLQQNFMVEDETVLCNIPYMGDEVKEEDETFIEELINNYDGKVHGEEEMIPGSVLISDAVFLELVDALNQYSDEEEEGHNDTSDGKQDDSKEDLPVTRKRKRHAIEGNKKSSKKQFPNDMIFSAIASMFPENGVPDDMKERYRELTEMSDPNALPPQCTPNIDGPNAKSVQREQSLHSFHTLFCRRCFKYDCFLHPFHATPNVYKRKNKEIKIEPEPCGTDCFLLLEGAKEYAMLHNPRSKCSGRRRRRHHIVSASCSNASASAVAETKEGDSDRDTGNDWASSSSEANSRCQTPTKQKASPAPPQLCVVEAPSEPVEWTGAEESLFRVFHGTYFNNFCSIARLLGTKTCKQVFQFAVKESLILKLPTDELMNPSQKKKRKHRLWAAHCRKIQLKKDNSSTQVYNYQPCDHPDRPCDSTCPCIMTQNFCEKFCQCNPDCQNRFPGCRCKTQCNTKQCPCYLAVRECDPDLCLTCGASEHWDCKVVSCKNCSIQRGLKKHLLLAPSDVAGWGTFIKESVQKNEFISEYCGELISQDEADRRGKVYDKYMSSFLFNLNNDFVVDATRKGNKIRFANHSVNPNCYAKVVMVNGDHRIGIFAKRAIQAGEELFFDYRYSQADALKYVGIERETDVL
Chain of EZH1 (O75530 whole entry partner, species assumed): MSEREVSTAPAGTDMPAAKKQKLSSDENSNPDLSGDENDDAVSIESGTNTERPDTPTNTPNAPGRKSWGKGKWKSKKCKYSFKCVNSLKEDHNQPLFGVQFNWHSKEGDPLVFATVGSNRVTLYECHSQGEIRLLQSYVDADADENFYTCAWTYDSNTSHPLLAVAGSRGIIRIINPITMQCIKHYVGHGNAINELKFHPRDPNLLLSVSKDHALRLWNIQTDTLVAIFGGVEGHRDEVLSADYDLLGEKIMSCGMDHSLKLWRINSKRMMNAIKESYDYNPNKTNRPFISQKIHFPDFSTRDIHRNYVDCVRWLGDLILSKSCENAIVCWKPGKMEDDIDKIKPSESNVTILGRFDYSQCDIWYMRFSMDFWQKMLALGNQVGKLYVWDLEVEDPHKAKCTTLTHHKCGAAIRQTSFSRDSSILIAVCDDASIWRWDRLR
Chain of EZH1 (Q15022 whole entry partner, species assumed): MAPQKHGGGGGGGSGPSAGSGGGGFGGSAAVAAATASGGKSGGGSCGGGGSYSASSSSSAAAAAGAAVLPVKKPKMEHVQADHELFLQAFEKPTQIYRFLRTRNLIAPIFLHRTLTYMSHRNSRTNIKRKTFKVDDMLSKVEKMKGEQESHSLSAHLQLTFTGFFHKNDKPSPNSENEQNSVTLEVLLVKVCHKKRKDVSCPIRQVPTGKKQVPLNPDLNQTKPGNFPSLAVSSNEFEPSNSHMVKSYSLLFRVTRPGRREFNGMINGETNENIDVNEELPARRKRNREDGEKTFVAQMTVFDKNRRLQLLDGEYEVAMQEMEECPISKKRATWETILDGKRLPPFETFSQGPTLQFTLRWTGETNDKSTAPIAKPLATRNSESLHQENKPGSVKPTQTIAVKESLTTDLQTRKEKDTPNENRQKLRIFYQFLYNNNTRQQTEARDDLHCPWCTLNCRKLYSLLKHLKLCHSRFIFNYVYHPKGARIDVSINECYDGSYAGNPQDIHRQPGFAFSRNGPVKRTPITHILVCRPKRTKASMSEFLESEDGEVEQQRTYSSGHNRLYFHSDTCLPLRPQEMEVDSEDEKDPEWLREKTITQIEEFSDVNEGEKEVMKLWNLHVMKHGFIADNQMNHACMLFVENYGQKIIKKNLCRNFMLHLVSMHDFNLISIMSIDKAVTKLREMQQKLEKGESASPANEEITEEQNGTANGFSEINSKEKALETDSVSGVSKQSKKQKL
Chain of EZH2 (Q15910 whole entry, species assumed): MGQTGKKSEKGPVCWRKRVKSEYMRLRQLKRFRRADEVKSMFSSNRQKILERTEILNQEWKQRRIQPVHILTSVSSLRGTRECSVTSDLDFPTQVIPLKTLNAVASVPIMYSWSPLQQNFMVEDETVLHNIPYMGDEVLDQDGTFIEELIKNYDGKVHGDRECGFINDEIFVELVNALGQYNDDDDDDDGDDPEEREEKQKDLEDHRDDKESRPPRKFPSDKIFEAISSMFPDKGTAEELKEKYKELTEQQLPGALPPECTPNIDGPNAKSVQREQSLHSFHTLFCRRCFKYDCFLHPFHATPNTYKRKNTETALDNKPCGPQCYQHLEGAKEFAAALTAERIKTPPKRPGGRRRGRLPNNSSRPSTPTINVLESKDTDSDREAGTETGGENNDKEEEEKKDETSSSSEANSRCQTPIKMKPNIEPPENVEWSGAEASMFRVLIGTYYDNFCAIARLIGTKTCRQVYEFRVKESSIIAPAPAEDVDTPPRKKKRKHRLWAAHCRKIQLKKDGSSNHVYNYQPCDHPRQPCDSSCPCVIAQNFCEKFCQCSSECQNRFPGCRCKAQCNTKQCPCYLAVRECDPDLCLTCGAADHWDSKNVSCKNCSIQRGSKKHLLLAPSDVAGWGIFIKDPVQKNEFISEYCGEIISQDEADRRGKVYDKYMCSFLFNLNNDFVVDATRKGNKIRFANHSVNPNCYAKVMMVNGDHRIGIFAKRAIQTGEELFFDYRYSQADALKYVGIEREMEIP
Chain of EZH2 (O75530 whole entry partner, species assumed): as the sequence (O75530 whole entry partner, species assumed) above
Chain of EZH2 (Q15022 whole entry partner, species assumed): as the sequence (Q15022 whole entry partner, species assumed) above

In the case of `COCCN(C)[C@H]1CC[C@H](C2(C)Oc3c(-c4ccc(OC)nc4)cc(C(=O)NCc4c(SC)cc(C)[nH]c4=O)c(C)c3O2)CC1` (relative stereo) [Compound 28, 2-(trans-4-((2-methoxyethyl)(methyl)amino)cyclohexyl)-7-(6-methoxypyridin-3-yl)-2,4-dimethyl-N-((6-methyl-4-(methylthio)-2-oxo-1,2-dihydropyridin-3-yl)methyl)benzo[d][1,3]dioxole-5-carboxamide], the inhibition at 1 µM in assay [1] was not above 30%; in assay [2], not above 30%; in assay [3], 30 to 70%; in assay [5], not above 30%; in assay [6], 30 to 70%; in assay [7] it was 30 to 70%. Besides, the inhibition at 0.005 µM came out at 99.4% in assay [4] (5nM test substance) and 77.3% in assay [8] (5nM test substance).

On to `CSc1cc(C)[nH]c(=O)c1CNC(=O)c1cc(-c2ccc(N3C[C@@H](C)O[C@@H](C)C3)nc2)c2c(c1C)OC(C)(C1CCN(CC(F)F)CC1)O2` (stereo partly drawn) [Compound 46, 2-(1-(2,2-difluoroethyl)piperidin-4-yl)-7-(6-((2S,6R)-2,6-dimethylmorpholino)pyridin-3-yl)-2,4-dimethyl-N-((6-methyl-4-(methylthio)-2-oxo-1,2-dihydropyridin-3-yl)methyl)benzo[d][1,3]dioxole-5-carboxamide], for which the inhibition at 1 µM in assay [1] is 30 to 70%; in assay [2], 30 to 70%; in assay [3], 30 to 70%; in assay [5] it was not above 30%; in assay [6], not below 70%; in assay [7], not below 70%. The inhibition at 0.005 µM amounted to 59.2% in assay [4] (5nM test substance) and 44.7% in assay [8] (5nM test substance). Further, the inhibition at 0.01 µM in assay [4] was 84%; in assay [8] (10nM test substance), 63%.

For `CSc1cc(C)[nH]c(=O)c1CNC(=O)c1cc(-c2ccc(N3C[C@@H](C)O[C@@H](C)C3)nc2)c2c(c1C)OC(C)(C1CCN(C3CCCCC3)CC1)O2` (single isomer, unassigned) [Compound 53], the inhibition at 1 µM in assay [1] was not above 30%; in assay [2], 30 to 70%; in assay [3], 30 to 70%; in assay [5], not above 30%. Besides, the figures for the inhibition at 0.005 µM in assay [4] (5nM test substance) and in assay [8] (5nM test substance) were 98.5% and 78.3%, respectively. In addition, the figures for the inhibition at 0.01 µM in assay [4] and in assay [8] (10nM test substance) were 99.6% and 91.6%, respectively. The “% inhibition rate G401” value in assay [6] is “+++ (+++: ≥70%)”. For the same compound, the “% inhibition rate LoVo” value in assay [7] (1 µM) is “+++ (+++: ≥70%)”.

`CSc1cc(C)[nH]c(=O)c1CNC(=O)c1cc(-c2cnc(N3CCCCC3)nc2)c2c(c1C)OC(C)(C1CCN(CC(F)(F)F)CC1)O2` (stereo not drawn) [Compound 39, 2,4-dimethyl-N-((6-methyl-4-(methylthio)-2-oxo-1,2-dihydropyridin-3-yl)methyl)-7-(2-(piperidin-1-yl)pyrimidin-5-yl)-2-(1-(2,2,2-trifluoroethyl)piperidin-4-yl)benzo[d][1,3]dioxole-5-carboxamide]: the inhibition at 1 µM in assay [1] was not above 30%; in assay [2], not above 30%; in assay [3], not above 30%; in assay [5] it was not above 30%; in assay [6], 30 to 70%; in assay [7], not below 70%. In addition, the inhibition at 0.005 µM in assay [4] (5nM test substance) amounted to 62%; in assay [8] (5nM test substance), 20.5%.

Turning to `CSc1cc(C)[nH]c(=O)c1CNC(=O)c1cc(-c2cnc(N3CCCC3)nc2)c2c(c1C)OC(C)([C@H]1CC[C@H](N(C)C)CC1)O2` (relative stereo) [Compound 5, 2-(trans-4-(dimethylamino)cyclohexyl)-2,4-dimethyl-N-((6-methyl-4-(methylthio)-2-oxo-1,2-dihydropyridin-3-yl)methyl)-7-(2-(pyrrolidin-1-yl)pyrimidin-5-yl)benzo[d][1,3]dioxole-5-carboxamide], the inhibition at 1 µM was not above 30% in assay [1]; not above 30% in assay [2]; 30 to 70% in assay [3]; not above 30% in assay [5]; 30 to 70% in assay [6]; 30 to 70% in assay [7]. Further, the inhibition at 0.005 µM in assay [4] (5nM test substance) amounted to 99.5%; in assay [8] (5nM test substance), 95.1%.

`CSc1cc(C)[nH]c(=O)c1CNC(=O)c1cc(-c2ccc(N3C[C@@H](C)O[C@@H](C)C3)nc2)c2c(c1C)OC(C)(C1CCN(CC(F)(F)F)CC1)O2` (single isomer, unassigned) [Compound 44]: the inhibition at 1 µM in assay [1] is 30 to 70%; in assay [2], 30 to 70%; in assay [3], 30 to 70%; in assay [5], not above 30%. For the same compound, the inhibition at 0.005 µM in assay [4] (5nM test substance) was 96.1%; in assay [8] (5nM test substance), 46.8%. Further, the inhibition at 0.01 µM was 99.6% in assay [4] and 78.2% in assay [8] (10nM test substance). In addition, in assay [6], the “% inhibition rate G401” value is recorded as “+++ (+++: ≥70%)”. The “% inhibition rate LoVo” value in assay [7] (1 µM) is “+++ (+++: ≥70%)”.

Consider `CSc1cc(C)[nH]c(=O)c1CNC(=O)c1cc(-c2ccc3c(c2)OCO3)c2c(c1C)OC(C)(C1CCN(CC(F)(F)F)CC1)O2` (stereo not drawn) [Compound 94, 2,7-dimethyl-N-((6-methyl-4-(methylthio)-2-oxo-1,2-dihydropyridin-3-yl)methyl)-2-(1-(2,2,2-trifluoroethyl)piperidin-4-yl)-[4,5'-bibenzo[d][1,3]dioxole]-6-carboxamide], for which the inhibition at 1 µM is not above 30% in assay [1]; not above 30% in assay [2]; not above 30% in assay [3]; not above 30% in assay [5]; not above 30% in assay [6]; not below 70% in assay [7]. Besides, the inhibition at 0.005 µM is 65.1% in assay [4] (5nM test substance) and 25.3% in assay [8] (5nM test substance). For the same compound, the inhibition at 0.01 µM in assay [4] came out at 82%; in assay [8] (10nM test substance) it was 28.5%.

`CCN(C)c1ccc(-c2cc(C(=O)NCc3c(SC)cc(C)[nH]c3=O)c(C)c3c2OC(C)(C2CCN(CC(F)(F)F)CC2)O3)cn1` (single isomer, unassigned) [Compound 79, 7-(2-(ethyl(methyl)amino)pyridin-5-yl)-2,4-dimethyl-N-((6-methyl-4-(methylthio)-2-oxo-1,2-dihydropyridin-3-yl)methyl)-2-(1-(2,2,2-trifluoroethyl)piperidin-4-yl)benzo[d][1,3]dioxole-5-carboxamide]: the inhibition at 1 µM in assay [1] was 30 to 70%; in assay [2] it was 30 to 70%; in assay [3], 30 to 70%; in assay [5] it was not above 30%; in assay [7], not below 70%. The compound further registered an inhibition at 0.005 µM in assay [4] (5nM test substance) of 97.1%. This compound returned an inhibition at 0.01 µM in assay [4] of 99.5%. Besides, the “% inhibition rate G401” value in assay [6] is on record as “+++ (+++: ≥70%)”. The “Enzyme inhibition % EZH1” value in assay [8] (5nM test substance, 0.005 µM) was 71.9%; in assay [8] (10nM test substance, 0.01 µM), 87.4%.

Turning to `CSc1cc(C)[nH]c(=O)c1CNC(=O)c1cc(-c2ccoc2)c2c(c1C)OC(C)([C@H]1CC[C@H](N(C)C)CC1)O2` (relative stereo) [Compound 18, 2-(trans-4-(dimethylamino)cyclohexyl)-7-(furan-3-yl)-2,4-dimethyl-N-((6-methyl-4-(methylthio)-2-oxo-1,2-dihydropyridin-3-yl)methyl)benzo[d][1,3]dioxole-5-carboxamide], the inhibition at 1 µM was not above 30% in assay [1]; not above 30% in assay [2]; 30 to 70% in assay [3]; not above 30% in assay [5]; 30 to 70% in assay [6]; not below 70% in assay [7]. Also, the inhibition at 0.005 µM in assay [4] (5nM test substance) turned out to be 99.8%; in assay [8] (5nM test substance) it was 87.6%.

Turning to `CSc1cc(C)[nH]c(=O)c1CNC(=O)c1cc(-c2ccc(N3C[C@@H](C)O[C@@H](C)C3)nc2)c2c(c1C)OC(C)([C@H]1CC[C@H](N(C)CC(F)(F)F)CC1)O2` (single isomer, unassigned) [Compound 108], the “% inhibition rate MKN -45” value in assay [1] was “+ (+: ≤30%)”. The “% inhibition rate NCI-H129 9” value in assay [2] is on record as “+ (+: ≤30%)”. In addition, the “% inhibition rate SW-13” value in assay [3] was “+ (+: ≤30%)”. In assay [4] (5nM test substance, 0.005 µM), the “Enzyme inhibition % EZH2” value is 4.3%. Further, the “% inhibition rate MIA-Paca2” value in assay [5] is recorded as “+ (+: ≤30%)”. Moreover, the “% inhibition rate G401” value in assay [6] is reported as “+ (+: ≤30%)”. Besides, the “% inhibition rate LoVo” value in assay [7] is on record as “+++ (+++: ≥70%)”. In assay [8] (5nM test substance, 0.005 µM), the “Enzyme inhibition % EZH1” value stood at 20.4%.
